Reference: patent US20060029548A1, “Methods of diagnosing, monitoring and treating pulmonary diseases” (priority 2004, published 2006)

Columns and labels:
[1] = tested on: vagal action potentials elicited by ATP; conditions: dog; cited from earlier work
[2] = tested on: pulmonary RAR-containing afferent nerve fiber; assay: Vagal activation experiments in dogs: action potentials in RAR-containing fibers; type: in vivo; conditions: anesthetized dog
Method: (§1) The experiments described in Example 5 were performed essentially as described in Pelleg et al. [(1996) J. Physiol. 490(1):265-275] and U.S. Pat. No. 5,874,420, both of which are incorporated herein by reference in their entirety. In brief, they were performed on anesthetized (sodium pentobarbitone, 30 mg kg^−1 plus 3 mg kg^−1 h^−1, intravenous) dogs artificially ventilated with room air using a respirator. Arterial blood pH, PO2, PCO2, body temperature were maintained as described in U.S. Pat. No. 5,874,420. A peripheral vein was cannulated for the administration of physiological saline solution and maintenance doses of anesthetic. Catheters were introduced via the femoral vein and left atrial appendage and positioned in the right atrium and left atrium for the administration of test solutions. The chest was opened by a longitudinal sternotomy. The right cervical vagosympathetic trunk was exposed by a midcervical longitudinal section of the skin and careful dissection of neck muscles and connective tissues. The edges of the cut skin were elevated and secured to create a trough which was filled with warm (about 37° C.) mineral oil. A section of the vagosympathetic trunk was placed on a small plate of black Perspex™ and fine branches were separated from the main bundle by careful dissection using microsurgical tools and a dissecting microscope (Model F212, Jenopik Jena, GmbH, Germany).
Extracellular neural action potentials were recorded using a custom-made bipolar electrode that contained two platinum-iridium wires (1.25 cm×0.0125 cm) connected to a high-impedence first-stage differential amplifier (model AC8331, CW, Inc., Ardmore, Pa.) via a shielded cable. The output of the first-stage amplifier was fed into a second-stage differential amplifier (model BMA-831/C, CWE, Inc.). Isolated fibers were laid on the pair of platinum-iridium wires. Vagal C fibers with chemosensitive endings have a sparse irregular discharge which is not associated with cardiac or respiratory cycles. Confirmation of fiber type was obtained by: first monitoring the response to capsaicin (10 microg kg^−1, intra-right atrial bolus); second, monitoring the response to mechanical stimulation of the lungs using gentle probing with forceps as well as inflation of the lungs to 2-3 times the tidal volume; and third, determining the speed of conduction using a stimulating electrode positioned distal to the initial recording site. Nerve fibers with RAR on their pulmonary endings, spontaneously fire a brief (i.e., short lasting) volley of action potentials associated with peak tracheal pressure during each respiratory cycle.
[…] Volume controls consisted of either 5 ml+5 ml or 1 ml+3 ml physiological saline. All injections were performed in the same mode by the same person. To exclude involvement of baroreceptors in the recorded neural activity, the latter was monitored before and after a bolus of nitroglycerine (1 mg; intravenous).
The procedure described in Example 1 was used to measure action potentials in dog pulmonary fibers with RAR on their terminals following administration of various agents. RAR activation generated a brief volley of action potentials associated with each respiratory cycle that was seen before as well as after administration of ATP (FIG. 7). […] Thus ATP modified the activity of the RAR-containing fiber manifested in their transient loss of the rapid adaptability characteristic.

vagal C fiber = assay: Vagal activation experiments in dogs: action potentials in vagal C fibers; type: in vivo; conditions: anesthetized dog, rapid bolus; simultaneous recording with RAR-containing fiber
Method: as §1
Extracellular neural action potentials were recorded using a custom-made bipolar electrode that contained two platinum-iridium wires (1.25 cm×0.0125 cm) connected to a high-impedence first-stage differential amplifier (model AC8331, CW, Inc., Ardmore, Pa.) via a shielded cable. The output of the first-stage amplifier was fed into a second-stage differential amplifier (model BMA-831/C, CWE, Inc.). Isolated fibers were laid on the pair of platinum-iridium wires. Vagal C fibers with chemosensitive endings have a sparse irregular discharge which is not associated with cardiac or respiratory cycles. […]
ATP (3 umole kg^−1) and capsaicin (10 ug kg^−1) were administered as a rapid bolus into the right atrium (5 ml test solution+5 ml physiological saline flush). α,βmATP and β,γmATP were given as one low dose only (0.75 umol kg^−1) to avoid systemic side effects. […] To exclude involvement of baroreceptors in the recorded neural activity, the latter was monitored before and after a bolus of nitroglycerine (1 mg; intravenous). […]

[3] = tested on: pulmonary vagal afferent C fibers (P2X3/P2X2/3-receptors); assay: Perfused nerve-lung preparation: action potentials in C fibers; type: cell-based, guinea pig
Method: (§2) The method for the extracellular recording of the activity of vagal sensory neurons projecting to guinea pig lungs -has been described in detail previously in Canning et al. [(2004) J. Physiol. 557:543-545], which is incorporated herein by reference in its entirety. Briefly, male Hartley guinea pigs (100-200 g) were killed with CO2 inhalation and exsanguination. The blood from the pulmonary circulation was washed out by in situ perfusion with Krebs' bicarbonate solution (KBS; comprised of 118 mM NaCl, 5.4 mM KCl, 1.0 mM NaH2PO4, 1.2 mM MgSO4, 1.9 mM CaCl2, 25.0 mM NaHCO3, 11.1 mM dextrose, and gassed with 95% O2-5% CO2 at pH7.4). The KBS contained 3 uM indomethacin to reduce the indirect influence of tissue prostanoids on sensory fiber activity. Trachea and right lungs, having intact right-side extrinsic vagal innervation by the inclusion, e.g., of right jugular and nodose ganglia, were dissected from the exsanguinated guinea pigs and placed in a two-compartment tissue bath. The right nodose and jugular ganglia, along with the rostral vagus nerve, were placed into one compartment of the tissue bath whereas the lung and trachea were placed into the second compartment of the tissue bath. The two compartments were separately superfused with KBS (6 ml min^−1, at 37° C.).
(§3) The pulmonary artery and trachea were cannulated with polyethylene (PE) tubing and continuously perfused with KBS (4 ml min^−1 and 2 ml min^−1, respectively). […]
(§4) Once a mechanosensitive receptive field was identified, a brief [<1 millisecond (ms)] electrical stimulus was delivered by a small concentric electrode that was positioned over a discrete region of the mechanosensitive receptive field to determine the conduction velocity of the fiber. […] Conduction velocity was calculated by dividing the distance along the nerve pathway by the time between the shock artifact and the action potential evoked by electrical stimulation of the mechanosensitive receptive field. […]

[4] = tested on: pulmonary vagal afferent A fibers (P2X3/P2X2/3-receptors); assay: Perfused nerve-lung preparation: action potentials in A fibers; type: cell-based, guinea pig
Method: as §2, §3, §4

In the case of `Cc1nc(N=Nc2ccc(S(=O)(=O)O)cc2S(=O)(=O)O)c(COP(=O)(O)O)c(C=O)c1O` [PPADS, pyridoxalphosphate-6-azophenyl-2′4′-disulphonic acid], the “effect on number of vagal action potentials elicited by ATP” value [1] is given as “reduced the number of vagal action potentials”.
With `Nc1ncnc2c1ncn2[C@@H]1O[C@H](COP(=O)(O)CP(=O)(O)OP(=O)(O)O)[C@@H](O)[C@H]1O` [α,βmATP, α,β-methylene ATP] the “potency relative to ATP” value ([2]; FIG. 9) was “more potent than ATP”, the “effect on action potentials of RAR-containing fibers” value ([2]; rapid bolus, ATP 6 μmol/kg, capsaicin 10 ug kg−1, analogs 0.75 umol kg−1) was “acted similarly to ATP” and the “effect on action potentials of C fibers” value (vagal C fiber) was “acted similarly to ATP”. The “frequency of the generated action potentials” value ([3]; C fibers (n=4), 10 μM, 1 mL bolus, mean±SD) was 146±29 discharge/sec and the “frequency of the generated action potentials” value ([4]; A fibers (n=7), 10 μM, 1 mL bolus, mean±SD) was 1543±285 discharge/sec.
In the case of `O=C(O)c1cc(C(=O)O)c(C(=O)N(Cc2cccc(Oc3ccccc3)c2)[C@H]2CCCc3ccccc32)cc1C(=O)O` [A-317491, 5-({(3-phenoxybenzyl)[(1S)-1,2,3,4-tetrahydro-1-napththalenyl]amino}carbonyl)-1,2,4-benzenetricarboxylic acid], the “inhibition of the action of α,βmATP” value ([3]; C fibers, antagonist 1 uM, 30 min, α,βmATP 10 uM 1 ml bolus) is reported as “no inhibitory effect”, the “reduction of response to α,βmATP” value ([3]; C fibers, antagonist 10 uM, 30 min, α,βmATP 10 uM 1 ml bolus) is reported as 62±5% and the “inhibition of the action of α,βmATP” value ([4]; A fibers, antagonist 1 uM, 30 min, α,βmATP 10 uM 1 ml bolus) is reported as 59±12%. For the same compound, the “reduction of response to α,βmATP” value ([4]; A fibers, antagonist 10 uM, 30 min, α,βmATP 10 uM 1 ml bolus) was 88±5%.
